Holding throughout (test): relative viability (nuclei count vs DMSO), 5 days (fraction); higher = more cells survive
Compound in one assay: COc1cccc2cc(-c3nc([C@H]4CC[C@H](C(=O)O)CC4)n4ncnc(N)c34)[nH]c12 [OSI-027]
Summed up: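 Vehicle-anchored 1536-well plates of lung cancer cell lines, held overnight at 37 °C, were pinned with five library-drug doses (not always all listed) spaced by √10. No medium change followed over the next 5 days, after which the cells were fixed, permeabilised and Hoechst-stained together and imaged at 4×. Nuclei were counted with MetaXpress, and viability is treated-well nuclei over vehicle-well nuclei, taken as a median across plates. Plates passed with control CV below 25% and at least one doubling.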

Compound in the assay “Vemurafenib + Vorinostat”: CCCS(=O)(=O)Nc1ccc(F)c(C(=O)c2c[nH]c3ncc(-c4ccc(Cl)cc4)cc23)c1F [Vemurafenib] + O=C(CCCCCCC(=O)Nc1ccccc1)NO [Vorinostat] (partner 1 µM)
Summed up:
(§1)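 A single step with final 0.05% Triton X-100, 1% formaldehyde and 1 ug/ml Hoechst fixed the cells and stained nuclei 5 days after treatment. Lung cancer cell lines in 1536-well plates had been treated by pin tool the day after seeding with one drug alone or a fixed anchor-drug dose plus five library-drug doses (not always all listed) in √10 steps, and nuclei were counted on 4× images. Relative viability is the ratio of nuclei in treated wells to nuclei in vehicle wells, taken as the median of duplicate plates.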

Compound in the assay “Alpelisib + Navitoclax”: Cc1nc(NC(=O)N2CCC[C@H]2C(N)=O)sc1-c1ccnc(C(C)(C)C(F)(F)F)c1 [Alpelisib] + CC1(C)CCC(c2ccc(Cl)cc2)=C(CN2CCN(c3ccc(C(=O)NS(=O)(=O)c4ccc(N[C@H](CCN5CCOCC5)CSc5ccccc5)c(S(=O)(=O)C(F)(F)F)c4)cc3)CC2)C1 [Navitoclax] (partner 0.5 µM)
The method, boiled down: as §1

Compound in the assay “Alpelisib + Luminespib”: Cc1nc(NC(=O)N2CCC[C@H]2C(N)=O)sc1-c1ccnc(C(C)(C)C(F)(F)F)c1 [Alpelisib] + CCNC(=O)c1noc(-c2cc(C(C)C)c(O)cc2O)c1-c1ccc(CN2CCOCC2)cc1 [Luminespib] (partner 0.01 µM)
The method, boiled down:
as §1

The values that follow come from the supplement of paper PMC10307832.

Turning to UMC-11, the relative viability is 0.913 with OSI-027 (0.01 µM); 0.916 in the assay with OSI-027 (0.03162 µM); 0.808 with OSI-027 (0.1 µM); 0.704 in the assay with OSI-027 (0.3162 µM); 0.49 with OSI-027 (0.5 µM, anchor plate); 0.561 with OSI-027 (1 µM). For the same cell line, the relative viability turned out to be 0.383 with Vemurafenib + Vorinostat (first compound 0.03162 µM); 0.439 with Vemurafenib + Vorinostat (first compound 0.1 µM); 0.576 in the assay with Vemurafenib + Vorinostat (first compound 0.3162 µM); 0.37 in the assay with Vemurafenib + Vorinostat (first compound 1 µM); 0.319 in the assay with Alpelisib + Navitoclax (first compound 0.04 µM); 0.341 in the assay with Alpelisib + Navitoclax (first compound 0.1265 µM). In addition, the relative viability was found to be 0.336 with Alpelisib + Navitoclax (first compound 0.4 µM); 0.325 with Alpelisib + Navitoclax (first compound 1.265 µM); 0.273 with Alpelisib + Navitoclax (first compound 4 µM); 1.04 with Alpelisib + Luminespib (first compound 0.04 µM); 1.05 with Alpelisib + Luminespib (first compound 0.1265 µM); 1.06 with Alpelisib + Luminespib (first compound 0.4 µM). For the same cell line, the figures for the relative viability with Alpelisib + Luminespib (first compound 1.265 µM) and in the assay with Alpelisib + Luminespib (first compound 4 µM) were 0.766 and 0.729, respectively.
